Experimental findings from patent publication US20110052740A1, “Skin Circulation-Improving Agent And Skin Temperature-Elevating Agent” (SHISEIDO COMPANY, LTD., priority 2008, published 2011) are described below.

Assay [1] in a line: Study of effect on skin temperature (smelling of test substance, body temperature logger). In kind it is in vivo, human. The conditions noted are these: for skin temperatures of the fingers: one person, vapor inhaled 3 min from impregnated cotton piece under the nose, 25° C., humidity 50%, FIG. 1; for skin temperatures of the cheeks / skin temperatures of the toes: smell taken with the nose, not illustrated by data. The method, then: The skin temperature of fingers was measured by use of 8ch Body Temperature Logger (supplied by Nikkiso-Therm Co., Ltd.), and a change in skin temperature due to smelling of a test substance was investigated. The effect on the peripheral skin temperature was thus studied. A solvent extract of a common jasmine (Jasminum officinale) belonging to the Jasminum genus in the Oleaceae family was used as a control, and the evaluation was made in the same manner.
A person was employed as a subject, and the test was made in a constant temperature and humidity room at a temperature of 25° C. and a humidity of 50%.
The subject was seated on an easy chair and allowed to take a rest for 30 minutes. […] The change in peripheral skin temperature was evaluated by use of a value (T value) obtained by subtracting a mean value of the skin temperatures at the two sites of the chest from the mean value of the skin temperatures at the two fingertip sites.
One sequence of measurement tests was composed of (A) a rest for three minutes, (B) attaching of an odorless cotton piece under the nose for three minutes, (C) a rest for three minutes, (D) attaching of a test sample-impregnated cotton piece under the nose for three minutes, (E) a rest for three minutes, (F) attaching of an odorless cotton piece under the nose for three minutes, and (G) a rest for three minutes. The skin temperature was measured successively during the one sequence, and the T values were calculated.
The T values obtained at the times of (B) and (F), at each of which the odorless cotton piece was attached, were taken as the controls and were compared with the T value obtained at the time of (D), at which the vapor of the test sample was inhaled. The effect of each substance on the skin temperature was thus investigated. Specifically, the formula shown below was utilized.
Skin temperature change (° C.)=T value (D)−(mean value of T value (B) and T value (F))

The next assay concerns sympathetic nerve. The assay can be described thus: Sympathetic nerve suppressing effect (confirmed by the inventors, no method given). The conditions noted are these: statement without data.
The nature of assay [2]: Study of effect on skin blood circulation (laser Doppler flow-meter, smelling of test sample). In kind it is in vivo, human. The following applies: general statement of the inventors' findings; no data shown for substances other than the Arabian jasmine extract. The method, then:
The skin blood circulation rate of fingers was measured by use of the laser Doppler flow-meter (ADVANCE LASER FLOW-METER ALF21), and the effect of the Arabian jasmine extract on the skin blood circulation was evaluated.
Six persons (men and women) were employed as subjects, and the test was made in a constant temperature and humidity room having been adjusted at a temperature of 22° C. and a humidity of 45%. Each of the subjects was seated on an easy chair and allowed to take a rest for 30 minutes. Thereafter, a probe of the flow-meter was fitted to the inner surface side of the third finger of the right hand of the subject, and a change in blood circulation rate with the passage of time was recorded. One sequence of measurement tests was composed of (A) a rest for three minutes, (B) attaching of an odorless cotton piece under the nose for three minutes, (C) a rest for three minutes, (D) attaching of a test sample-impregnated cotton piece under the nose for three minutes, (E) a rest for three minutes, (F) attaching of an odorless cotton piece under the nose for three minutes, and (G) a rest for three minutes. The blood circulation rate was measured successively during the one sequence. […]

For the molecule `CCCCC1OC(=O)CC1C` (stereo not shown) [3-methyloctano-4-lactone], in assay [1], the “skin temperatures of the fingers” value is “increased”, the “skin temperatures of the cheeks” value was “could be increased” and the “skin temperatures of the toes” value is listed as “could be increased”. The “sympathetic nerve suppressing effect” value in the assay with sympathetic nerve is given as “has a sympathetic nerve suppressing effect”. Moreover, the “rate of the skin blood circulation (summary of findings)” value in assay [2] is “increases”.

As for `CC(=O)OC1CC2CCC1(C)C2(C)C` (stereo not shown) [bornyl acetate], in assay [1], the “skin temperatures of the fingers” value is “increased”, the “skin temperatures of the cheeks” value was “could be increased” and the “skin temperatures of the toes” value is given as “could be increased”. The “sympathetic nerve suppressing effect” value with sympathetic nerve was “has a sympathetic nerve suppressing effect”. For the same molecule, the “rate of the skin blood circulation (summary of findings)” value in assay [2] is given as “increases”.
